# Data: patent US8338460B2, “2-pyridinecarboxamide derivative having GK-activating effect” (MSD K. K., priority 2006, dated 2012)
# Tests used:
# [1] = Comparative test of solubility; assay type: physicochemical; details: shaken 75 min; for solubility thermodynamic at 75 min: 200 mM potassium phosphate buffer, pH 7.4, aqueous buffer, read-out: Solibility to 200 mM potassium phosphate buffer; for solubility thermodynamic at 75 min / solubility at 75 min: thermodynamic from solid; for solubility at 75 min: JP-1 artificial gastric fluid, pH 1.2, simulated gastric fluid, JP-1 pH1.2 (artificial gastric fluid), 1 mg in 1 ml
# Protocol: Experiment 3 (Comparative Test of Solubility)
# 1 mg of compounds were placed in 1 ml of medium (JP-1, […] potassium phosphate buffer) and was shaken on a shaking-incubator for 75 min. (1000 rpm). After centrifugation, concentration of supernatant was analyzed by HPLC.
# JP1: pH1.2 (artificial gastric fluid: 35 mM NaCl, 84 mM HCl in water)
# 2.0 g of NaCl, 7.0 ml of HCl and water were mixed in a measuring flask (1000 ml).
# 200 mM potassium phosphate buffer: pH7.4
# 200 mM K2HPO4 and 200 mM KH2PO4 were mixed and adjusted to pH7.4 by using pH meter.
# [2] = Comparative test of solubility; assay type: physicochemical; details: water, thermodynamic from solid
# [3] = system: Male beagle dogs; assay: Pharmacological test in dog: plasma glucose after oral administration; assay type: in vivo; details: AUC for 4 hr after administration, fasted male beagle dogs
# Protocol: Pharmacological Experiment 2 (Pharmacological Test in Dog)
# Male beagle dogs (BW 9.6-13.8 kg) were fasted overnight. Pre-dose blood sampling was performed from cephalic vein. The test drugs, which were suspended into 0.5% methylcellulose, were orally administrated (example 1 at 0.25, 0.5 and 1 mg/kg, and example 4, and compound B at 1 mg/kg). Control group was given 0.5% methylcellulose alone. Blood was taken every 0.5 or 1 hour after the drug dosing. Plasma sample were obtained by centrifugation, and the plasma glucose levels were measured by “Determiner GL-E” (Kyowa Medex Co., Ltd. Japan).
# [4] = target: T1, recombinant human liver GK (Homo sapiens, UniProt P35557); assay: Glucokinase-activating effect (Thio-NADH coupled assay with G6PDH); assay type: biochemical; details: 2.5 mM glucose, 30° C.
# T1 construct: made in house; host or cells: E. coli
# T1 sequence (P35557 1-466 isoform P35557-2): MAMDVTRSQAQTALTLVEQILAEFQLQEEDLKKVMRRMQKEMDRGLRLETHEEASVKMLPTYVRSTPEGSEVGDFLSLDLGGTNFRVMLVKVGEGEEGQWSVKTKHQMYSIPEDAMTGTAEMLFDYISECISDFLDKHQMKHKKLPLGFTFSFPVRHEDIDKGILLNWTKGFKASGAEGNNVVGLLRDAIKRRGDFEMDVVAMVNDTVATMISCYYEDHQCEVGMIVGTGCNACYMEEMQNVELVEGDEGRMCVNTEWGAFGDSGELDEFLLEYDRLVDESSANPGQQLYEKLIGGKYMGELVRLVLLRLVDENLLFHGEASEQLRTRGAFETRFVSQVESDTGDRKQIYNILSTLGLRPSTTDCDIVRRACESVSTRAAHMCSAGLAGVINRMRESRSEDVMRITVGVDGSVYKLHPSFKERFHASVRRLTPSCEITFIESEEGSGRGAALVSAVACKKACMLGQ
# Excerpt: Pharmacological Experiment 1 (Glucokinase-Activating Effect)
# The excellent glucokinase-activating effect of the compounds of formula (I) may be determined by a method described in references (for example, Diabetes, Vol. 45, pp. 1671-1677, 1996), or in accordance with it.
# The glucokinase activity may be determined not by directly measuring glucose-6-phosphate but by measuring the level of Thio-NADH, which is produced when a reporter enzyme, glucose-6-phosphate dehydrogenase produces phosphogluconolactone from glucose-6-phosphate, and based on the level, the degree of glucokinase activation by the compound tested may be determined.
# In this assay, used was a recombinant human liver GK, which was expressed by E. coli as a FLAG fusion protein therein and was purified by ANTIFLAG M2 AFFINITY GEL (Sigma).
# Using a flat-bottomed 96-well plate, the assay was carried out at 30° C. 69 μl of an assay buffer (25 mM Hepes Buffer/pH=7.2, 2 mM MgCl2, 1 mM ATP, 0.5 mM TNAD, 1 mM dithiothreitol) was put into the plate, and 1 μl of a DMSO solution of the compound or DMSO alone as a control was added thereto. Next, 20 μl of an enzyme mixture (FLAG-GK, 20 U/ml G6PDH) cooled in ice was added to it, and 10 μl of a substrate, 25 mM glucose was added to it, and the reaction was initiated (final glucose concentration=2.5 mM).
# After the start of the reaction, the increase in the absorbance at 405 nm was measured for 12 minutes at intervals of 30 seconds, and the increase for the first 5 minutes was used for assessing the compound tested. FLAG-GK was added so that the absorbance increase after 5 minutes in the presence of 1% DMSO could be from 0.04 to 0.06.
# The OD level of the DMSO control was set as 100%; and the OD level of the test compound at different concentrations was determined. From the OD level at each concentration, Emax (%) and EC50 (μM) were computed and used as the index of the GK-activating potency of the compound.
Structure (SMILES),"solubility thermodynamic at 75 min ([1]; pH7.4, 1 mg in 1 ml) [µg/mL]",solubility at 75 min [1] [µg/mL],solubility at 75 min [2] [µg/mL],EC50 [4] [nM],"Solibility to 200 mM potassium phosphate buffer ([1]; pH7.4, 1 mg in 1 ml) [µg/mL]",Emax ([4]; OD level of DMSO control set as 100%) [%],% Reduction of plasma glucose AUC ([3]; 1 mg/kg oral) [%],% Reduction of plasma glucose AUC ([3]; 0.25 mg/kg oral) [%],% Reduction of plasma glucose AUC ([3]; 0.5 mg/kg oral) [%]
"Cc1nsc(NC(=O)c2nc(Sc3nncn3C)ccc2Sc2ccc(CCO)cc2)n1 [(A), reference compound]",3.4,6.2,2.4,–,–,–,–,–,–
"Cc1nsc(NC(=O)c2nc(Sc3nnc[nH]3)ccc2Sc2ccc(OCCN(C)C)cc2)n1 [Compound (B), reference compound]",–,–,–,–,–,–,7.4,–,–
"Cc1nsc(NC(=O)c2nc(Sc3nncn3C)ccc2Sc2ccc(OCCN(C)C)cc2)n1 [Example 1, 3-({4-[2-(dimethylamino)ethoxy]phenyl}thio)-N-(3-methyl-1,2,4-thiadiazol-5-yl)-6-[(4-methyl-4H-1,2,4-triazol-3-yl)thio]pyridine-2-carboxamide]",17.5,> 1000,15.2,90,–,–,15.7,7.9,10.6
Cc1nsc(NC(=O)c2nc(Sc3nncn3C)ccc2Sc2ccc(OCCN3CCC[C@H]3C)cc2)n1 [Example 4],–,> 1000,47.4,150,47.3,–,26.8,–,–
"Cc1nsc(NC(=O)c2nc(Sc3nncn3C)ccc2Sc2ccc(OCCN3CCCCC3)cc2)n1 [Example 26, N-(3-methyl-1,2,4-thiadiazol-5-yl)-6-[(4-methyl-4H-1,2,4-triazol-3-yl)thio]-3-{[4-(2-piperidin-1-ylethoxy)phenyl]thio}pyridine-2-carboxamide]",239,> 1000,176,70,–,–,–,–,–

# Now from value to compound, other results behind:
"solubility thermodynamic at 75 min ([1]; pH7.4, 1 mg in 1 ml) [µg/mL]",solubility at 75 min [1] [µg/mL],solubility at 75 min [2] [µg/mL],EC50 [4] [nM],"Solibility to 200 mM potassium phosphate buffer ([1]; pH7.4, 1 mg in 1 ml) [µg/mL]",Emax ([4]; OD level of DMSO control set as 100%) [%],Structure (SMILES),% Reduction of plasma glucose AUC ([3]; 1 mg/kg oral) [%],% Reduction of plasma glucose AUC ([3]; 0.25 mg/kg oral) [%],% Reduction of plasma glucose AUC ([3]; 0.5 mg/kg oral) [%]
308,> 1000,583,60,–,–,"Cc1nsc(NC(=O)c2nc(Sc3nncn3C)ccc2Sc2ccc(OC[C@@H]3CCCN3C)cc2)n1 [Example 7, 3-[(4-{[(2S)-1-methylpyrrolidin-2-yl]methoxy}phenyl)thio]-N-(3-methyl-1,2,4-thiadiazol-5-yl)-6-[(4-methyl-4H-1,2,4-triazol-3-yl)thio]pyridine-2-carboxamide]",–,–,–
86.8,> 1000,127,40,–,964,"Cc1nsc(NC(=O)c2nc(Sc3nncn3C)ccc2Sc2ccc(O[C@@H]3CCN(C(C)C)C3)cc2)n1 [Example 20, 3-[(4-{[(3R)-1-isopropylpyrrolidin-3-yl]oxy}phenyl)thio]-N-(3-methyl-1,2,4-thiadiazol-5-yl)-6-[(4-methyl-4H-1,2,4-triazol-3-yl)thio]pyridine-2-carboxamide]",–,–,–
122,> 1000,208,60,–,–,"CCN(C)CCOc1ccc(Sc2ccc(Sc3nncn3C)nc2C(=O)Nc2nc(C)ns2)cc1 [Example 23, 3-[(4-{2-[ethyl(methyl)amino]ethoxy}phenyl)thio]-N-(3-methyl-1,2,4-thiadiazol-5-yl)-6-[(4-methyl-4H-1,2,4-triazol-3-yl)thio]pyridine-2-carboxamide]",–,–,–
298,> 1000,230,40,–,–,"CCN(CC)CCOc1ccc(Sc2ccc(Sc3nncn3C)nc2C(=O)Nc2nc(C)ns2)cc1 [Example 24, 3-({4-[2-(diethylamino)ethoxy]phenyl}thio)-N-(3-methyl-1,2,4-thiadiazol-5-yl)-6-[(4-methyl-4H-1,2,4-triazol-3-yl)thio]pyridine-2-carboxamide]",–,–,–
13.8,> 1000,16.4,50,–,–,"CCN1CC(Oc2ccc(Sc3ccc(Sc4nncn4C)nc3C(=O)Nc3nc(C)ns3)cc2)C1 [Example 25, 3-({4-[(1-ethylazetidin-3-yl)oxy]phenyl}thio)-N-(3-methyl-1,2,4-thiadiazol-5-yl)-6-[(4-methyl-4H-1,2,4-triazol-3-yl)thio]pyridine-2-carboxamide]",42.1,–,–
